Results taken from ChEMBL document CHEMBL5390302, “Novel PARP7 Inhibitors for Treating Cancer” (ACS Med Chem Lett, 2023).

Target: T1, Protein mono-ADP-ribosyltransferase TIPARP (Homo sapiens, UniProt Q7Z3E1)
T1 sequence (Q7Z3E1 whole entry): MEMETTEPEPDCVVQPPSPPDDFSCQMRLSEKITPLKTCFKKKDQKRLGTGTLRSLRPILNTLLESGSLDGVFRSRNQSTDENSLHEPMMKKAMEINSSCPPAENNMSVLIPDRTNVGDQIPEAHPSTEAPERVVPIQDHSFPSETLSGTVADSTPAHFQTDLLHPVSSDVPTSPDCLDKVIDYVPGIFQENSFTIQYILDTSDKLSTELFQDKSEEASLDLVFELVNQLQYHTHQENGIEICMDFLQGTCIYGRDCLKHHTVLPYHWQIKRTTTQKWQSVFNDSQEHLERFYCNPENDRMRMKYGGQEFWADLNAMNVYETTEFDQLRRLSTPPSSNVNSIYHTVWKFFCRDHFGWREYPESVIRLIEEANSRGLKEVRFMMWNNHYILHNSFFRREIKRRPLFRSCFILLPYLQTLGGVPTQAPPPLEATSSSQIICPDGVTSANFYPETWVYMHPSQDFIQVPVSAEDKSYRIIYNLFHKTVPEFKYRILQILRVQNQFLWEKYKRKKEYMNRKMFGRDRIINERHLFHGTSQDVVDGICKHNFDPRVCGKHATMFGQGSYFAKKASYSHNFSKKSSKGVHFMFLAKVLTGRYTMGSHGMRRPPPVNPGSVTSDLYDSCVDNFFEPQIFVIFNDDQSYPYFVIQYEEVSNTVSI
Assay: Displacement of biotinylated RBN011147 probe from PARP7 (unknown origin) preincubated for 1 hr followed by incubation with probe for 1.5 hrs by MSD electrochemiluminescent assay

| IC50 [nM] | Structure (SMILES) |
| --- | --- |
| 0.185 | C[C@@H](CCCn1ccc2cc(-c3ncc(C(F)(F)F)c(N4C[C@@H](O)[C@@H]4C)n3)c(F)cc2c1=O)Nc1cn[nH]c(=O)c1C(F)(F)F |
| 0.188 | C[C@@H](CCCn1ccc2cc(-c3ncc(Cl)c(N)n3)c(F)cc2c1=O)Nc1cn[nH]c(=O)c1C(F)(F)F |
| 0.188 | C[C@@H](CCCn1ccc2cc(-c3ncc(C(F)(F)F)c(N4CC(C#N)C4)n3)c(F)cc2c1=O)Nc1cn[nH]c(=O)c1C(F)(F)F |
